Assay results as given in patent US8124360B2, “Use of a T1R2 nucleic acid sequence to identify tastants” (Givaudan S.A., priority 2006, dated 2012).
Residues, ends and D or L forms follow the SMILES beside them.

Experiments:
T1R2 monomer [1] = biological target: T1, T1R2 monomer (Homo sapiens, UniProt Q8TE23); experiment: Fluo-4 calcium assay, HEK293T/G16gust44 cells transiently transfected with T1R2 monomer; assay type: cell-based
T1 construct: expressed in transfected cells; host or cells: HEK293T cells stably expressing G16gust44
T1 sequence (Q8TE23 20-839): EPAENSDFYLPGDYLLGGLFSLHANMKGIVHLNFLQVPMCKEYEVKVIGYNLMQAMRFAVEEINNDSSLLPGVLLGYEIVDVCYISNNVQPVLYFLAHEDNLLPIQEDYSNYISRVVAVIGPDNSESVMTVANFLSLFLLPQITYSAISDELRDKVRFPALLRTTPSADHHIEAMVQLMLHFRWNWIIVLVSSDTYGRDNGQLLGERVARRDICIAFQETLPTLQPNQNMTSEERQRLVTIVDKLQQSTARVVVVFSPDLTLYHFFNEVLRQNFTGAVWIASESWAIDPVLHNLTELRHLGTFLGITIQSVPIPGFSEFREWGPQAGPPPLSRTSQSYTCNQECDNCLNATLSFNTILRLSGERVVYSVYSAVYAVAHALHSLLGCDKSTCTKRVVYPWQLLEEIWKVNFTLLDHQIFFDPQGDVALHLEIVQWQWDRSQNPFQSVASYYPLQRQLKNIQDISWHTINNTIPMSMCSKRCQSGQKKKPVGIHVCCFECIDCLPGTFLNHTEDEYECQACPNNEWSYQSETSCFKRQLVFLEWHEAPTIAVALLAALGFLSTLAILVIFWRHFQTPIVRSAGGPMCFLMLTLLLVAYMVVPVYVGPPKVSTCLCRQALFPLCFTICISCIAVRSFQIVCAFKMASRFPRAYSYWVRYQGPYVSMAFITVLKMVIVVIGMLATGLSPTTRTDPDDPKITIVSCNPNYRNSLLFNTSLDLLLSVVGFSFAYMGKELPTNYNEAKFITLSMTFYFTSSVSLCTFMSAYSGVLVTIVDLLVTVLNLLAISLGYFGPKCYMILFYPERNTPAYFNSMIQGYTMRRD
Excerpt: (§1) All examples use the human receptors.
(§2) HEK293 cells stably expressing G alpha 16-gustducin 44 and transfected as described in example 2, 3 or 4 were used as host cells.
(§3) To form a T1R2 vector construct, cDNA fragments containing the entire protein coding sequences for human T1R2 and T1R3 were isolated from a human fungiform cDNA library, fully sequenced and then subcloned into pcDNA3.1 (Invitrogen).

T1R3 monomer = biological target: T2, T1R3 monomer (Homo sapiens, UniProt Q7RTX0); experiment: Fluo-4 calcium assay, HEK293T/G16gust44 cells transiently transfected with T1R3 monomer; assay type: cell-based; conditions: 50 μM perillartine, mean of six replicates
T2 construct: expressed in transfected cells; host or cells: HEK293T cells stably expressing G16gust44
T2 sequence (Q7RTX0 21-852): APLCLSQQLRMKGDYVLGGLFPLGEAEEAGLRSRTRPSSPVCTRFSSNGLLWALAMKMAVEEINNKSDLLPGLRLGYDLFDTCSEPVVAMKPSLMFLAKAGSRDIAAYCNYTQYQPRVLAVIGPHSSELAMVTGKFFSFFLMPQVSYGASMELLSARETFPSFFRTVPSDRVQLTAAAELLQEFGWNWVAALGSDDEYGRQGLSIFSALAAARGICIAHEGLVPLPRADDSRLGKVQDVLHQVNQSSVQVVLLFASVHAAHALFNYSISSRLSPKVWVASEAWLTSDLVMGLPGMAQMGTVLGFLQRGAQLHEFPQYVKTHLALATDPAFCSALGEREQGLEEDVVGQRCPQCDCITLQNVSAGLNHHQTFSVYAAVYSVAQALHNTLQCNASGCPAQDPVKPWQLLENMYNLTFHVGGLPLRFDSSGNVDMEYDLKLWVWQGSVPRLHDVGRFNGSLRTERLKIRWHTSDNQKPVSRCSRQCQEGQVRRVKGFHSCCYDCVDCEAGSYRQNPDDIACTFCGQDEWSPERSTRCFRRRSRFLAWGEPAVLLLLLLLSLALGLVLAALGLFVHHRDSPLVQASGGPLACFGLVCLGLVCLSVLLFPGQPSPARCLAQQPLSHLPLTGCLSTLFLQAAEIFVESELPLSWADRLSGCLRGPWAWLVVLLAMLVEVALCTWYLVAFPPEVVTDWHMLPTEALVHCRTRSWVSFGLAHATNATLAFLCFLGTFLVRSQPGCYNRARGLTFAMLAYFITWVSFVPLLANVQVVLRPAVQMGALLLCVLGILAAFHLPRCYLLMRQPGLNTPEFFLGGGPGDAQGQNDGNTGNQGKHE
Excerpt: as §1, §2, §3

T1R2/T1R3 dimer = biological target: T3, T1R2/T1R3 dimer (Homo sapiens, UniProt Q7RTX0+Q8TE23); experiment: Fluo-4 calcium assay, HEK293T/G16gust44 cells transiently transfected with T1R2 and T1R3; assay type: cell-based
T3 construct: expressed in transfected cells; host or cells: HEK293T cells stably expressing G16gust44
T3 sequence (Q8TE23 20-839): T1 sequence (Q8TE23 20-839)
T3 sequence (Q7RTX0 21-852): T2 sequence (Q7RTX0 21-852)
Excerpt: as §1, §2, §3

[2] = system: mock transfected cells expressing only the G16gust44 chimeric G-protein; experiment: Fluo-4 calcium assay, mock transfected cells expressing only G16gust44 (negative control cells); assay type: cell-based, human; conditions: 50 μM perillartine, mean of six replicates
Excerpt: as §2

T1R2 monomer [3] = biological target: T1, T1R2 monomer; experiment: Calcium flux assay (FLIPR), clonal cell lines stably expressing T1R2 and G16gust44; assay type: cell-based; conditions: 50 μM perillartine
Description: as §1
A human T1R2/pcDNA4-Zeocin construct was linearized by digesting 5 ug with Pvu II and then purified using the Wizard DNA Clean-Up System (Promega). The DNA was transfected using the Lipofectamine 2000 reagent into cells that already stably express the G16gust44 G-protein (formed as described in WO 2004/055048).
(§4) For results, see table below. The signal average of the experiment is given, as well as the standard deviation (STD) in RFU. Two clones were analysed. Non-transfected cells expressing G16gust44 only serve as a general negative control.

[4] = system: cells expressing G16gust44 only; experiment: Calcium flux assay (FLIPR), non-transfected cells expressing G16gust44 only; assay type: cell-based; conditions: 50 μM perillartine
Description: as §4

[5] = 50 μM perillartine, mean of six replicates

SMILES | calcium signal compared with negative controls (mock transfected cells) (T1R2 monomer [1]) | calcium signal intensity (T1R2/T1R3 dimer) | other results
C=C(C)[C@@H]1CC=C(/C=N/O)CC1 [perillartine] | – | – | SIGNAL AVERAGE (net increase in fluorescence over baseline) (T1R2 monomer [1]; [5]): 944.9 RFU; SIGNAL AVERAGE (net increase in fluorescence over baseline) (T1R3 monomer): 165.6 RFU; SIGNAL AVERAGE (net increase in fluorescence over baseline) (T1R2/T1R3 dimer; [5]): 1279.6 RFU; SIGNAL AVERAGE (net increase in fluorescence over baseline) [2]: 353.5 RFU; Signal average (T1R2 monomer [3]; T1R2/G16gust44 CLONE 2): 4336.25 RFU; Signal average (T1R2 monomer [3]; T1R2/G16gust44 CLONE 4): 5288.47 RFU; perillartine-dependent signal relative to negative control cells expressing only G16gust44 (T1R2 monomer [3]; clonal cell lines stably expressing T1R2 monomer): at least 10 fold; Signal average [4]: 368.71 RFU
OC[C@H]1O[C@H](O[C@]2(CCl)O[C@H](CCl)[C@@H](O)[C@@H]2O)[C@H](O)[C@@H](O)[C@H]1Cl [sucralose] | not significantly above the signals observed for the negative controls | strong signals comparable to the signal intensity of perillartine | –
N[C@H](Cc1c[nH]c2ccccc12)C(=O)O [D-tryptophan] | not significantly above the signals observed for the negative controls | strong signals comparable to the signal intensity of perillartine | –
COC(=O)[C@H](Cc1ccccc1)NC(=O)[C@@H](N)CC(=O)O [aspartame] (H-Asp-Phe-OMe) | not significantly above the signals observed for the negative controls | strong signals comparable to the signal intensity of perillartine | –
C=C1C[C@@]23CC[C@H]4[C@@](C)(CCC[C@@]4(C)C(=O)O[C@@H]4O[C@H](CO)[C@@H](O)[C@H](O)[C@H]4O)[C@@H]2CC[C@]1(O[C@@H]1O[C@H](CO)[C@@H](O)[C@H](O)[C@H]1O[C@@H]1O[C@H](CO)[C@@H](O)[C@H](O)[C@H]1O)C3 [stevioside] | not significantly above the signals observed for the negative controls | strong signals comparable to the signal intensity of perillartine | –
